Measurements taken from patent publication US6586633B1, “Amine derivatives” (Pola Chemical Industries, Inc., priority 2001, dated 2003).
Read-outs that look alike come from different tables or passages of the source.

Columns and labels:
Assay in all cases: Measurement of antifungal activity (minimum inhibitory concentration), agar dilution
Assay type in all cases: cell-based
[1] = test system: M. canis TIMM0760; conditions: Microsporum canis, 168 h, Sabouraud's agar, one week at 27° C., read-out: MIC value (minimum compound concentration that definitely inhibited any visible growth)
Procedure: (§1) Measurement of Antifungal Activity (Measurement of Minimum Inhibitory Concentration)
(§2) Antifungal activity of representative compounds of the present invention against dermatophytes was investigated.
(§3) Briefly, strains of dermatophytes to be tested were grown on slant media prepared with Sabouraud's agar (product of Nissuiseiyaku; pepton 1.0%, glucose 4.0%, agar 1.5%, pH 5.9) at 27° C. for two weeks, so as to allow sufficient production of conidiospores. Subsequently, sterilized saline solution containing 0.05% (wt/vol) TWEEN 80 was added thereto, and while the surface of the each medium was scraped with a platinum loop, the conidiospores were deaggregated and suspended in the saline solution. The suspension was filtered through a double face sterilized gauze sheet so as to remove agar and hypha pellets. The filtrate was diluted with a saline solution so as to make the concentration of the conidiospores decrease to 10^6/ml by use of a cytometer, and the resultant dilute filtrate served as a test dermatophytes solution. Meanwhile, a stock solution was prepared by adding 1 ml of dimethylsulfoxide to 10 mg of a compound to be tested. An aliquot (500 μl) of the stock solution was combined with dimethylsulfoxide (500 μl), to thereby prepare a 2-fold dilute solution. Dilution was similarly repeated until 13 different dilute solutions ranging from 10 to 0.0025 mg/ml (concentrations of the ultimate test system: 100-0.025 μg/ml) were obtained. 100 μl each of the diluted solutions of the test compound was dispensed into the sterilized petri dish. A Sabouraud's agar (pepton 1.0%, glucose 4.0%, agar 1.5%, pH 5.9; 10 ml), which had been sterilized and dissolved, was added thereto, and the mixture was thoroughly mixed and solidified. Next, the above-prepared test dermatophytes solution was planted in amounts of 5 μl by use of a microplanter.

[2] = test system: M. gypseum IF08231; conditions: Nannizzia gypsea, 168 h, Sabouraud's agar, one week at 27° C., read-out: MIC value (minimum compound concentration that definitely inhibited any visible growth)
Procedure: as §1, §2, §3

[3] = test system: T. mentagrophytes IF05811; conditions: Trichophyton mentagrophytes, 168 h, Sabouraud's agar, one week at 27° C., read-out: MIC value (minimum compound concentration that definitely inhibited any visible growth)
Procedure: as §1, §2, §3

[4] = test system: T. mentagrophytes IF07552; conditions: Trichophyton mentagrophytes, 168 h, Sabouraud's agar, one week at 27° C., read-out: MIC value (minimum compound concentration that definitely inhibited any visible growth)
Procedure: as §1, §2, §3

[5] = test system: T. mentagrophytes TIMM1177; conditions: Trichophyton mentagrophytes, 168 h, Sabouraud's agar, one week at 27° C., read-out: MIC value (minimum compound concentration that definitely inhibited any visible growth)
Procedure: as §1, §2, §3

[6] = test system: T. mentagrophytes TIMM1189; conditions: Trichophyton mentagrophytes, 168 h, Sabouraud's agar, one week at 27° C., read-out: MIC value (minimum compound concentration that definitely inhibited any visible growth)
Procedure: as §1, §2, §3

[7] = test system: T. rubrum IF05808; conditions: Trichophyton rubrum, 168 h, Sabouraud's agar, one week at 27° C., read-out: MIC value (minimum compound concentration that definitely inhibited any visible growth)
Procedure: as §1, §2, §3

[8] = test system: T. rubrum IF09185; conditions: Trichophyton rubrum, 168 h, Sabouraud's agar, one week at 27° C., read-out: MIC value (minimum compound concentration that definitely inhibited any visible growth)
Procedure: as §1, §2, §3

[9] = test system: T. violaceum TIMM1264; conditions: Trichophyton violaceum, 168 h, Sabouraud's agar, one week at 27° C., read-out: MIC value (minimum compound concentration that definitely inhibited any visible growth)
Procedure: as §1, §2, §3

Compound	MIC [1]	MIC ([2]; M. gypseum IF08231 (Table 2))	MIC [3]	MIC [4]	MIC [5]	MIC [6]	MIC [7]	MIC [8]	MIC [9]	MIC ([2]; H. gypseum IF08231 (Table 1))
C=C(CC)c1cccc(CN(C)Cc2ccc(C(C)(C)C)cc2)c1.Cl [Compound 95, N-(4-tert-Butylbenzyl)-N-methyl-[3-(1-ethylvinyl)benzyl]amine Hydrochloride]	0.2 µg/mL	3.12 µg/mL	1.56 µg/mL	0.78 µg/mL	0.78 µg/mL	0.78 µg/mL	0.39 µg/mL	0.39 µg/mL	0.78 µg/mL	–
C=C(C)c1cccc(CN(C)Cc2ccc(C(C)(C)C)cc2)c1.Cl [Compound 77, N-(4-tert-Butylbenzyl)-N-methyl-(3-isopropenylbenzyl)amine Hydrochloride]	0.2 µg/mL	0.39 µg/mL	0.39 µg/mL	0.1 µg/mL	0.2 µg/mL	0.2 µg/mL	0.1 µg/mL	0.1 µg/mL	0.2 µg/mL	–
CC(C)=Cc1cccc(CN(C)C/C=C/C#CC(C)(C)C)c1.Cl [Compound 12, trans-N-(6,6-Dimethyl-2-hepten-4-ynyl)-N-methyl-[3-(2-methyl-1-propenyl)benzyl]amine Hydrochloride]	0.2 µg/mL	–	0.39 µg/mL	0.39 µg/mL	0.78 µg/mL	0.39 µg/mL	0.39 µg/mL	0.2 µg/mL	0.39 µg/mL	0.78 µg/mL
C=C(C)c1cccc(CN(C)CC=Cc2ccccc2)c1.Cl [Compound 48, N-Cinnamyl-N-methyl-(3-isopropenylbenzyl)amine Hydrochloride]	1.56 µg/mL	–	6.25 µg/mL	3.12 µg/mL	6.25 µg/mL	6.25 µg/mL	1.56 µg/mL	1.56 µg/mL	6.25 µg/mL	6.25 µg/mL

Second part, the compound after the results:

MIC [1]	MIC ([2]; M. gypseum IF08231 (Table 2))	MIC [3]	MIC [4]	MIC [5]	MIC [6]	MIC [7]	MIC [8]	MIC [9]	MIC ([2]; H. gypseum IF08231 (Table 1))	Compound
0.1 µg/mL	–	0.1 µg/mL	0.05 µg/mL	0.1 µg/mL	0.05 µg/mL	0.1 µg/mL	0.1 µg/mL	0.1 µg/mL	0.2 µg/mL	C=C(C)c1cc(C)cc(CN(C)C/C=C/C#CC(C)(C)C)c1.Cl [Compound 19, trans-N-(6,6-Dimethyl-2-hepten-4-ynyl)-N-methyl-(3-isopropenyl-5-methylbenzyl)amine Hydrochloride]
0.2 µg/mL	–	0.1 µg/mL	0.1 µg/mL	0.1 µg/mL	0.1 µg/mL	0.1 µg/mL	0.1 µg/mL	0.2 µg/mL	0.39 µg/mL	C=C(C)c1cc(F)cc(CN(C)C/C=C/C#CC(C)(C)C)c1.Cl [Compound 64, trans-N-(6,6-Dimethyl-2-hepten-4-ynyl)-N-methyl-(3-fluoro-5-isopropenylbenzyl)amine Hydrochloride]
